# According to patent publication US20260256870A1, “SKIN COMPOSITION” (Eaderm Co., Ltd., priority 2019, published 2026):
# Structures can show the parent of a compound that is named as a salt.
# Tested on: human epidermal keratinocytes
# Experiment: Colony formation assay using human epidermal keratinocytes
# Format: cell-based
# Settings: Table 1
# From the text: To test whether COL17A1-mediated SCD maintains clonal proliferation of epidermal stem cell clones, the present inventors used a colony formation assay, which is an in vitro assay said to be the gold standard for assessing the self-renewal ability of epidermal stem cells, including cells in the tail epidermis.
Compound,Colony area (control ratio),Colony number (control ratio)
COc1ccc(-c2coc3cc(O)cc(O)c3c2=O)cc1 [Biochanin A],○,○
CC(=O)c1ccc2c(c1)Nc1ccccc1S2 [ML171],⊚ (one double circle (⊚) indicates maintenance of 1.0-1.2-fold),⊚ (one double circle (⊚) indicates maintenance of 1.0-1.2-fold)
C[C@H]1CNCCCN1S(=O)(=O)c1cccc2cncc(F)c12 [Ripasudil],⊚ (one double circle (⊚) indicates maintenance of 1.0-1.2-fold),⊚ (one double circle (⊚) indicates maintenance of 1.0-1.2-fold)
O=c1cc(-c2ccc(O)cc2)oc2cc(O)cc(O)c12 [Apigenin],○,○
Fc1ccc(C(c2ccc(F)cc2)N2CCN(C/C=C/c3ccccc3)CC2)cc1 [Flunarizine Hydrochloride],⊚ (one double circle (⊚) indicates maintenance of 1.0-1.2-fold),⊚ (one double circle (⊚) indicates maintenance of 1.0-1.2-fold)
CC(=N)NCc1cccc(CN)c1 [1400 W],○,○
CCCCc1oc2ccccc2c1C(=O)c1cc(I)c(OCCN(CC)CC)c(I)c1 [Amiodarone Hydrochloride],○,⊚ (one double circle (⊚) indicates maintenance of 1.0-1.2-fold)
CN1C(=O)C(Cc2c[nH]c3ccccc23)NC1=S (stereo not drawn) [Necrostatin-1],⊚ (one double circle (⊚) indicates maintenance of 1.0-1.2-fold),⊚ (one double circle (⊚) indicates maintenance of 1.0-1.2-fold)
CC(CCc1ccc(O)cc1)NCCc1ccc(O)c(O)c1 (stereo not drawn) [Dobutamine Hydrochloride],⊚ (one double circle (⊚) indicates maintenance of 1.0-1.2-fold),⊚ (one double circle (⊚) indicates maintenance of 1.0-1.2-fold)
O=c1c2ccccc2[se]n1-c1ccccc1 [Ebselen],⊚ (one double circle (⊚) indicates maintenance of 1.0-1.2-fold),⊚ (one double circle (⊚) indicates maintenance of 1.0-1.2-fold)
C#C[C@]1(O)CC[C@H]2[C@@H]3CCc4cc(O)ccc4[C@H]3CC[C@@]21C [Ethynyl Estsadiol],⊚ (one double circle (⊚) indicates maintenance of 1.0-1.2-fold),⊚ (one double circle (⊚) indicates maintenance of 1.0-1.2-fold)
Cc1ccc(-c2cc(C(F)(F)F)nn2-c2ccc(S(N)(=O)=O)cc2)cc1 [Celecoxib],⊚ (one double circle (⊚) indicates maintenance of 1.0-1.2-fold),⊚ (one double circle (⊚) indicates maintenance of 1.0-1.2-fold)
OC1(c2ccc(Cl)c(C(F)(F)F)c2)CCN(CCCC(c2ccc(F)cc2)c2ccc(F)cc2)CC1 [Penfluridol],⊚ (one double circle (⊚) indicates maintenance of 1.0-1.2-fold),⊚ (one double circle (⊚) indicates maintenance of 1.0-1.2-fold)
N=C(N)NN [Aminoguanidine],○,○

# Same assay, conditions: Table 2
Compound,Colony area (control ratio),Colony number (control ratio)
CC(C)=CCC1=C(O)C(=O)c2ccccc2C1=O [Lapachol],⊚ (one double circle (⊚) indicates maintenance of 1.0-1.2-fold),⊚ (one double circle (⊚) indicates maintenance of 1.0-1.2-fold)

# Tested on: COL17A1
# Experiment: COL17A1 expression in human epidermal keratinocytes by high content imaging (HCS)
# Format: cell-based
# Settings: not given
# Description: The present inventors further searched for substances that induce or maintain the expression of COL17A1. Human epidermal keratinocytes were seeded in 384-well plates, cultured for 48 hours after addition of reagents, immunostained with an anti-COL17A1 antibody and a fluorescently labeled secondary antibody, and then the fluorescence intensity per cell was detected using a high content imaging system (HCS: High Content Screening). In addition to cell counting with DAPI, the expression level of COL17A1 was quantified.
row,Compound,COL17A1 expression level (control ratio)
1,O=P1(N(CCCl)CCCl)NCCCO1 (stereo not drawn) [Cyclophosphamide hydrate],0.88

# Same assay, conditions: Table 1; human epidermal keratinocytes, 48 hours after addition of reagents, fluorescence intensity per cell
row,Compound,COL17A1 expression level (control ratio)
1,COc1ccc(-c2coc3cc(O)cc(O)c3c2=O)cc1 [Biochanin A],⊚ (one double circle (⊚) represents a 1.2-fold or greater increase)
2,CN1C(C(=O)Nc2ccccn2)=C(O)c2sccc2S1(=O)=O [Tenoxicam],⊚ (one double circle (⊚) represents a 1.2-fold or greater increase)
3,COc1ccc2c(c1)c(CC(=O)OCC(=O)O)c(C)n2C(=O)c1ccc(Cl)cc1 [Acemetacin],⊚ (one double circle (⊚) represents a 1.2-fold or greater increase)
4,CCCCOc1ccc(CC(=O)NO)cc1 [Bufexamac],⊚ (one double circle (⊚) represents a 1.2-fold or greater increase)
5,CC(=O)c1ccc2c(c1)Nc1ccccc1S2 [ML171],○ (one circle (0) represents a 1.0-1.2-fold maintenance)
6,Clc1ccccc1C(c1ccccc1)(c1ccccc1)n1ccnc1 [Clotrimazole],⊚ (one double circle (⊚) represents a 1.2-fold or greater increase)
7,C[C@H]1CNCCCN1S(=O)(=O)c1cccc2cncc(F)c12 [Ripasudil],⊚⊚ (two double circles (⊚⊚) in the COL17A1 expression level (control ratio) represent a 2.0-fold or greater increase in the expression level)
8,O=c1cc(-c2ccc(O)cc2)oc2cc(O)cc(O)c12 [Apigenin],⊚⊚ (two double circles (⊚⊚) in the COL17A1 expression level (control ratio) represent a 2.0-fold or greater increase in the expression level)
9,C[C@]12C=CC(=O)C=C1CC[C@H]1[C@@H]3C[C@@H](O)[C@](O)(C(=O)CO)[C@@]3(C)C[C@H](O)[C@@]12F [Triamcinolone],⊚ (one double circle (⊚) represents a 1.2-fold or greater increase)
10,C[C@H]1[C@@H](O)O[C@@H]2O[C@@]3(C)CC[C@H]4[C@H](C)CC[C@@H]1[C@@]24OO3 [Artenimol],⊚ (one double circle (⊚) represents a 1.2-fold or greater increase)
11,Fc1ccc(C(c2ccc(F)cc2)N2CCN(C/C=C/c3ccccc3)CC2)cc1 [Flunarizine Hydrochloride],⊚ (one double circle (⊚) represents a 1.2-fold or greater increase)
12,CC(=N)NCc1cccc(CN)c1 [1400 W],○ (one circle (0) represents a 1.0-1.2-fold maintenance)
13,CCCCc1oc2ccccc2c1C(=O)c1cc(I)c(OCCN(CC)CC)c(I)c1 [Amiodarone Hydrochloride],⊚⊚ (two double circles (⊚⊚) in the COL17A1 expression level (control ratio) represent a 2.0-fold or greater increase in the expression level)
14,CN1C(=O)C(Cc2c[nH]c3ccccc23)NC1=S (stereo not drawn) [Necrostatin-1],⊚ (one double circle (⊚) represents a 1.2-fold or greater increase)
15,CC(CCc1ccc(O)cc1)NCCc1ccc(O)c(O)c1 (stereo not drawn) [Dobutamine Hydrochloride],⊚⊚ (two double circles (⊚⊚) in the COL17A1 expression level (control ratio) represent a 2.0-fold or greater increase in the expression level)
16,O=c1c2ccccc2[se]n1-c1ccccc1 [Ebselen],⊚ (one double circle (⊚) represents a 1.2-fold or greater increase)
17,C#C[C@]1(O)CC[C@H]2[C@@H]3CCc4cc(O)ccc4[C@H]3CC[C@@]21C [Ethynyl Estsadiol],⊚⊚ (two double circles (⊚⊚) in the COL17A1 expression level (control ratio) represent a 2.0-fold or greater increase in the expression level)
18,C[C@H]1C[C@H]2[C@@H]3CCC4=CC(=O)C=C[C@]4(C)[C@@]3(F)[C@@H](O)C[C@]2(C)[C@@]1(O)C(=O)CO [Bethamethazone],⊚⊚ (two double circles (⊚⊚) in the COL17A1 expression level (control ratio) represent a 2.0-fold or greater increase in the expression level)
19,Cc1ccc(-c2cc(C(F)(F)F)nn2-c2ccc(S(N)(=O)=O)cc2)cc1 [Celecoxib],⊚ (one double circle (⊚) represents a 1.2-fold or greater increase)
20,Cc1c(Cl)cccc1Nc1ccccc1C(=O)O [Tolfenamic Acid],⊚ (one double circle (⊚) represents a 1.2-fold or greater increase)
21,OC1(c2ccc(Cl)c(C(F)(F)F)c2)CCN(CCCC(c2ccc(F)cc2)c2ccc(F)cc2)CC1 [Penfluridol],⊚ (one double circle (⊚) represents a 1.2-fold or greater increase)
22,Monensin Sodium,⊚ (one double circle (⊚) represents a 1.2-fold or greater increase)
23,O=C(O)c1cccnc1Nc1cccc(C(F)(F)F)c1 [Niflumic Acid],⊚ (one double circle (⊚) represents a 1.2-fold or greater increase)
24,N=C(N)NN [Aminoguanidine],○ (one circle (0) represents a 1.0-1.2-fold maintenance)
25,COc1ccc(-c2cc(C(F)F)nn2-c2ccc(S(N)(=O)=O)cc2)cc1F [Deracoxib],⊚ (one double circle (⊚) represents a 1.2-fold or greater increase)

# Same assay, conditions: Table 2; human epidermal keratinocytes, 48 hours after addition of reagents
row,Compound,COL17A1 expression level (control ratio)
1,CC(C)=CCC1=C(O)C(=O)c2ccccc2C1=O [Lapachol],⊚⊚ (two double circles (⊚⊚) in the COL17A1 expression level (control ratio) represent a 2.0-fold or greater increase in the expression level)

# Same assay, conditions: Table 3; anticancer drugs and molecularly targeted drugs
row,Compound,COL17A1 expression level (control ratio)
1,N.N.[Cl][Pt][Cl] [Cisplatin],0.97
2,Nc1nc(F)nc2c1ncn2[C@@H]1O[C@H](COP(=O)(O)O)[C@@H](O)[C@@H]1O [Fludarabine phosphate],0.90
3,O=c1[nH]c(=O)n(C2CCCO2)cc1F (stereo not drawn) [Tegafur],0.90
4,CC/C(=C(\c1ccccc1)c1ccc(OCCN(C)C)cc1)c1ccccc1 [Tamoxifen citrate],0.78
5,Cn1nnc2c(C(N)=O)ncn2c1=O [Temozolomide],0.98
6,Clc1ccc(C(c2ccccc2Cl)C(Cl)Cl)cc1 (stereo not drawn) [Mitotane],0.98
7,O=NN(CCCl)C(=O)NCCCl [Carmustine],0.94
8,Toremiphene citrate,0.94
9,COc1cccc(-c2cc(=O)c3ccccc3o2)c1N [PD98059],0.84
10,CCC(=O)O[C@H]1CC[C@H]2[C@@H]3CCC4=CC(=O)CC[C@]4(C)[C@H]3CC[C@]12C [Testosterone propionate],0.84
11,COc1ccc(C[C@H](N)C(=O)N[C@H]2[C@@H](O)[C@H](n3cnc4c(N(C)C)ncnc43)O[C@@H]2CO)cc1 [Puromycin hydrochloride],0.85
12,CN(C)/N=N/c1[nH]cnc1C(N)=O [Dacarbazine],0.94
13,O=P1(NCCCl)OCCCN1CCCl (stereo not drawn) [Ifosfamide],0.84
14,S=c1nc[nH]c2nc[nH]c12 [Mercaptopurine],0.83
15,C=C1C[C@@H]2[C@H](CC[C@]3(C)C(=O)CC[C@@H]23)[C@@]2(C)C=CC(=O)C=C12 [Exemestane],0.93
16,NC(=O)NO [Hydroxyurea],0.92
17,CC(=O)O.O=c1[nH]cc(F)c(=O)[nH]1 [Fluorouracil acetate],0.88
18,Nc1ccn([C@@H]2O[C@H](CO)[C@@H](O)C2(F)F)c(=O)n1 [Gemcitabine],0.96
